Source: patent publication US20080241289A1, “PREPARATION AND UTILITY OF NON-NUCLEOSIDE REVERSE TRANSCRIPTASE INHIBITORS” (AUSPEX PHARMACEUTICALS, INC., priority 2007, published 2008)

Tested on: BN Rats
Assay: Incidence of skin rash in BN rats, time course study
Type: in vivo
Procedure: The protocol was modeled after that published previously (Shenton et al, Chem. Res. Toxicol. 2005, 18, 1799-1813, and Popovic et al, Chem. Res. Toxicol. 2006, 19, 1205-1214). After a 1-week acclimation period, the rats (n=3 per group) were either treated with the suspension vehicle (1% Tween® 20), or Nevirapine (NVP) (150 mg/kg/day) in suspension, or compounds of Formula I (dNVP) (150 mg/kg) in suspension. Animals were monitored for development of skin rash, and body weight. At the endpoint of the experiment, rats were humanely euthanized using carbon dioxide and exsanguinations.
At day 18, all animals in all three groups were euthanized as the experiment was deemed to have reached its ethical endpoint where no additional dosing was considered appropriate.

`Cc1ccnc2c1NC(=O)c1cccnc1N2C1CC1` [NVP, 11-Cyclopropyl-5,11-dihydro-4-methyl-6H-dipyrido[3,2,-b:2′,3′-e][1,4]-diazepin-2-one] was tested, and the “other visible signs (ears, eyes, feet, tail)” value (150 mg/kg/day in suspension, at approximately the two-week point) was “distinctly red ears, edematous eyes, purple feet, and a mottled tail”, the “behaviour / general health after dosing” value (150 mg/kg/day in suspension, over entire course of the experiment (to day 18)) was “inactivity and a lack of responsiveness for about three hours after each dosing” and the “overall toxicity, NVP compared with compounds of Formula I” value (150 mg/kg/day in suspension, under controlled conditions) was “substantially more toxic than compounds of Formula I”. For the same compound, the “development of skin lesions (skin rash)” value (n=3 per group, 150 mg/kg/day in suspension (1% Tween 20), observed to day 18) was “all NVP-treated animals displayed lesions, particularly around the dorsal area of the neck”.
